Patent US20260265265A1, “NOVEL BENZIMIDAZOLONE DERIVATIVE COMPOUND AS AUTOTAXIN INHIBITOR” (LG CHEM, LTD., priority 2023, published 2026)

Target: T1, Recombinant Human ENPP-2/Autotaxin (Homo sapiens, UniProt Q13822)
T1 construct: purchased R&D systems 5255-EN
Experiment: LysoPLD activity measurement (autotaxin enzyme inhibition, choline release, TOOS reagent)
Assay type: biochemical
Details: LysoPLD inhibitory activity; substrate 14:0 LysoPC; absorbance at 555 nm
Method in brief: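 Autotaxin lysoPLD activity was read as choline released from 14:0 LysoPC, detected by TOOS reagent absorbance. Compound was preincubated 30 min, then substrate diluted to 300 μM was added and the reaction ran 90 minutes at 37° C. Controls contained 1% DMSO.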

| SMILES | IC50 |
| --- | --- |
| O=C(O)c1cccc(C2(n3c(=O)n(-c4ccc(C(=O)N5CC(O)C5)cc4)c4cc(Cl)cnc43)CC2)c1F [Example 232, 3-(1-(6-chloro-1-(4-(3-hydroxyazetidine-1-carbonyl)phenyl)-2-oxo-1,2-dihydro-3H-imidazo[4,5-b]pyridin-3-yl)cyclopropyl)-2-fluorobenzoic acid] | < 10 nM |
| O=C(O)c1cccc(C2(n3c(=O)n(-c4ccc(C(=O)N5CC6(COC6)C5)cc4)c4cc(Cl)cnc43)CC2)c1F [Example 233, 3-(1-(1-(4-(2-oxa-6-azaspiro[3.3]heptane-6-carbonyl)phenyl)-6-chloro-2-oxo-1,2-dihydro-3H-imidazo[4,5-b]pyridin-3-yl)cyclopropyl)-2-fluorobenzoic acid] | 10 to 100 nM |
| CCC(=O)N1CCC(c2ccc(-n3c(=O)n(C4(c5cccc(C(=O)O)c5)CC4)c4ccc(Cl)cc43)cc2)CC1 [Example 234, 3-(1-(5-chloro-2-oxo-3-(4-(1-propionylpiperidin-4-yl)phenyl)-2,3-dihydro-1H-benzo[d]imidazol-1-yl)cyclopropyl)benzoic acid] | < 10 nM |
| CCC(=O)N1CCC(c2ccc(-n3c(=O)n(C4(c5cc(F)cc(C(=O)O)c5)CC4)c4ccc(Cl)cc43)cc2)CC1 [Example 235, 3-(1-(5-chloro-2-oxo-3-(4-(1-propionylpiperidin-4-yl)phenyl)-2,3-dihydro-1H-benzo[d]imidazol-1-yl)cyclopropyl)-5-fluorobenzoic acid] | < 10 nM |
| O=C(O)c1cccc(C2(n3c(=O)n(-c4ccc(CN5CCCC5=O)cc4)c4cc(Cl)ccc43)CC2)c1 [Example 236, 3-(1-(5-chloro-2-oxo-3-(4-((2-oxopyrrolidin-1-yl)methyl)phenyl)-2,3-dihydro-1H-benzo[d]imidazol-1-yl)cyclopropyl)benzoic acid] | < 10 nM |
| O=C(O)c1cccc(C2(n3c(=O)n(-c4ccc(Cn5cnc(C(F)(F)F)c5)cc4)c4cc(Cl)ccc43)CC2)c1 [Example 237, 3-(1-(5-chloro-2-oxo-3-(4-((4-(trifluoromethyl)-1H-imidazol-1-yl)methyl)phenyl)-2,3-dihydro-1H-benzo[d]imidazol-1-yl)cyclopropyl)benzoic acid] | 10 to 100 nM |
| O=C(O)c1cccc(C2(n3c(=O)n(-c4ccc(C5(CO)CC5)cc4)c4cc(Cl)ccc43)CC2)c1 [Example 238, 3-(1-(5-chloro-3-(4-(1-(hydroxymethyl)cyclopropyl)phenyl)-2-oxo-2,3-dihydro-1H-benzo[d]imidazol-1-yl)cyclopropyl)benzoic acid] | < 10 nM |
| O=C(O)c1cccc(C2(n3c(=O)n(-c4ccc(C5(CO)CCC5)cc4)c4cc(Cl)ccc43)CC2)c1 [Example 239, 3-(1-(5-chloro-3-(4-(1-(hydroxymethyl)cyclobutyl)phenyl)-2-oxo-2,3-dihydro-1H-benzo[d]imidazol-1-yl)cyclopropyl)benzoic acid] | < 10 nM |
| O=C(O)c1cccc(C2(n3c(=O)n(-c4ccc(CC5COC5)cc4)c4cc(Cl)ccc43)CC2)c1 [Example 240, 3-(1-(5-chloro-3-(4-(oxetan-3-ylmethyl)phenyl)-2-oxo-2,3-dihydro-1H-benzo[d]imidazol-1-yl)cyclopropyl)benzoic acid] | < 10 nM |
| CN1CCN(Cc2ccc(-n3c(=O)n(C4(c5cccc(C(=O)O)c5)CC4)c4ccc(Cl)cc43)cc2)C1=O [Example 241, 3-(1-(5-chloro-3-(4-((3-methyl-2-oxoimidazolin-1-yl)methyl)phenyl)-2-oxo-2,3-dihydro-1H-benzo[d]imidazol-1-yl)cyclopropyl)benzoic acid] | < 10 nM |
| CC1(C)COC(=O)N1c1ccc(-n2c(=O)n(C3(c4cccc(C(=O)O)c4)CC3)c3ccc(Cl)cc32)cc1 [Example 242, 3-(1-(5-chloro-3-(4-(4,4-dimethyl-2-oxooxazolidin-3-yl)phenyl)-2-oxo-2,3-dihydro-1H-benzo[d]imidazol-1-yl)cyclopropyl)benzoic acid] | < 10 nM |
| O=C(O)c1cccc(C2(n3c(=O)n(-c4ccc(N5C(=O)OCC56CC6)cc4)c4cc(Cl)ccc43)CC2)c1 [Example 243, 3-(1-(5-chloro-2-oxo-3-(4-(5-oxo-6-oxa-4-azaspiro[2.4]heptan-4-yl)phenyl)-2,3-dihydro-1H-benzo[d]imidazol-1-yl)cyclopropyl)benzoic acid] | < 10 nM |
| O=C(O)c1cccc(C2(n3c(=O)n(-c4ccc(Cn5ccc(C(F)(F)F)n5)cc4)c4cc(Cl)ccc43)CC2)c1 [Example 244, 3-(1-(5-chloro-2-oxo-3-(4-((3-(trifluoromethyl)-1H-pyrazol-1-yl)methyl)phenyl)-2,3-dihydro-1H-benzo[d]imidazol-1-yl)cyclopropyl)benzoic acid] | 100 to 1000 nM |
| CN1Cc2cc(-n3c(=O)n(C4(c5cccc(C(=O)O)c5)CC4)c4ccc(Cl)cc43)ccc2C1=O [Example 245, 3-(1-(5-chloro-3-(2-methyl-1-oxoisoindolin-5-yl)-2-oxo-2,3-dihydro-1H-benzo[d]imidazol-1-yl)cyclopropyl)benzoic acid] | < 10 nM |
| CC(C)(O)c1ccc(-n2c(=O)n(C3(c4cccc(C(=O)O)c4)CC3)c3ccc(Cl)cc32)cc1 [Example 246, 3-(1-(5-chloro-3-(4-(2-hydroxypropane-2-yl)phenyl)-2-oxo-2,3-dihydro-1H-benzo[d]imidazol-1-yl)cyclopropyl)benzoic acid] | < 10 nM |
| CC1(c2ccc(-n3c(=O)n(C4(c5cccc(C(=O)O)c5)CC4)c4ccc(Cl)cc43)cc2)COC1 [Example 247, 3-(1-(5-chloro-3-(4-(3-methyloxetan-3-yl)phenyl)-2-oxo-2,3-dihydro-1H-benzo[d]imidazol-1-yl)cyclopropyl)benzoic acid] | < 10 nM |
| O=C(O)c1cccc(C2(n3c(=O)n(-c4ccc(C5CCOC5)cc4)c4cc(Cl)ccc43)CC2)c1 (centres unmarked) [Example 248, 3-(1-(5-chloro-2-oxo-3-(4-(tetrahydrofuran-3-yl)phenyl)-2,3-dihydro-1H-benzo[d]imidazol-1-yl)cyclopropyl)benzoic acid] | < 10 nM |
| O=C(O)c1cc(F)cc(C2(n3c(=O)n(-c4ccc(C5CCOC5)cc4)c4cc(Cl)ccc43)CC2)c1 (centres unmarked) [Example 249, 3-(1-(5-chloro-2-oxo-3-(4-(tetrahydrofuran-3-yl)phenyl)-2,3-dihydro-1H-benzo[d]imidazol-1-yl)cyclopropyl)-5-fluorobenzoic acid] | < 10 nM |
| O=C(O)c1cccc(C2(n3c(=O)n(-c4ccc(C5CCOC5)cc4)c4cc(Cl)ccc43)CC2)c1F (centres unmarked) [Example 250, 3-(1-(5-chloro-2-oxo-3-(4-(tetrahydrofuran-3-yl)phenyl)-2,3-dihydro-1H-benzo[d]imidazol-1-yl)cyclopropyl)-2-fluorobenzoic acid] | < 10 nM |
| CC1(C)OCc2cc(-n3c(=O)n(C4(c5cccc(C(=O)O)c5)CC4)c4ccc(Cl)cc43)ccc21 [Example 251, 3-(1-(5-chloro-3-(1,1-dimethyl-1,3-dihydroisobenzofuran-5-yl)-2-oxo-2,3-dihydro-1H-benzo[d]imidazol-1-yl)cyclopropyl)benzoic acid] | < 10 nM |
| CC1(C)OCc2cc(-n3c(=O)n(C4(c5cc(F)cc(C(=O)O)c5)CC4)c4ccc(Cl)cc43)ccc21 [Example 252, 3-(1-(5-chloro-3-(1,1-dimethyl-1,3-dihydroisobenzofuran-5-yl)-2-oxo-2,3-dihydro-1H-benzo[d]imidazol-1-yl)cyclopropyl)-5-fluorobenzoic acid] | < 10 nM |
| CC1(C)OCc2cc(-n3c(=O)n(C4(c5cccc(C(=O)O)c5F)CC4)c4ccc(Cl)cc43)ccc21 [Example 253, 3-(1-(5-chloro-3-(1,1-dimethyl-1,3-dihydroisobenzofuran-5-yl)-2-oxo-2,3-dihydro-1H-benzo[d]imidazol-1-yl)cyclopropyl)-2-fluorobenzoic acid] | 10 to 100 nM |
| O=C1COc2cc(-n3c(=O)n(C4(c5cc(F)cc(C(=O)O)c5)CC4)c4ccc(Cl)cc43)ccc2N1 [Example 254, 3-(1-(5-chloro-2-oxo-3-(3-oxo-3,4-dihydro-2H-benzo[b][1,4]oxazin-7-yl)-2,3-dihydro-1H-benzo[d]imidazol-1-yl)cyclopropyl)-5-fluorobenzoic acid] | < 10 nM |
| CN1CCOc2cc(-n3c(=O)n(C4(c5cc(F)cc(C(=O)O)c5)CC4)c4ccc(Cl)cc43)ccc21 [Example 255, 3-(1-(5-chloro-3-(4-methyl-3,4-dihydro-2H-benzo[b][1,4]oxazin-7-yl)-2-oxo-2,3-dihydro-1H-benzo[d]imidazol-1-yl)cyclopropyl)-5-fluorobenzoic acid] | < 10 nM |
| O=C(O)c1cccc(C2(n3c(=O)n(-c4ccc(C5(O)CCC5)cc4)c4cc(Cl)ccc43)CC2)c1 [Example 256, 3-(1-(5-chloro-3-(4-(1-hydroxycyclobutyl)phenyl)-2-oxo-2,3-dihydro-1H-benzo[d]imidazol-1-yl)cyclopropyl)benzoic acid] | < 10 nM |
| O=C(O)c1cc(F)cc(C2(n3c(=O)n(-c4ccc(C5(O)CCC5)cc4)c4cc(Cl)ccc43)CC2)c1 [Example 257, 3-(1-(5-chloro-3-(4-(1-hydroxycyclobutyl)phenyl)-2-oxo-2,3-dihydro-1H-benzo[d]imidazol-1-yl)cyclopropyl)-5-fluorobenzoic acid] | < 10 nM |
| O=C(O)c1cccc(C2(n3c(=O)n(-c4ccc(C5(O)COC5)cc4)c4cc(Cl)ccc43)CC2)c1 [Example 258, 3-(1-(5-chloro-3-(4-(3-hydroxyoxetan-3-yl)phenyl)-2-oxo-2,3-dihydro-1H-benzo[d]imidazol-1-yl)cyclopropyl)benzoic acid] | < 10 nM |
| O=C(O)c1cccc(Cn2c(=O)n(-c3ccc(C4CCN(C5COC5)CC4)cc3)c3cc(Cl)ccc32)c1 [Example 259, 3-((5-chloro-3-(4-(1-(oxetan-3-yl)piperidin-4-yl)phenyl)-2-oxo-2,3-dihydro-1H-benzo[d]imidazol-1-yl)methyl)benzoic acid] | 100 to 1000 nM |
| O=C(O)c1cccc(C2(n3c(=O)n(-c4ccc(C5CCN(C6COC6)CC5)cc4)c4cc(Cl)ccc43)CC2)c1 [Example 260, 3-(1-(5-chloro-3-(4-(1-(oxetan-3-yl)piperidin-4-yl)phenyl)-2-oxo-2,3-dihydro-1H-benzo[d]imidazol-1-yl)cyclopropyl)benzoic acid] | < 10 nM |
